Data set [1] can be described thus: Plasma clearance in Beagle dog at 2 mg/kg, iv. In kind it is ADME, organism-based, Canis lupus familiaris. Also on record: dose 2 mg/kg, route intravenous.
A further data set deals with Canis familiaris. The experiment in a line: Plasma concentration in Beagle dog at 3 mg/kg, po. Also on record: dose 3 mg/kg, route oral. It is filed as ADME, organism-based, Canis lupus familiaris. The settings on record: in vivo.
A short description of data set [2]: Bioavailability in Beagle dog at 3 mg/kg, po. In kind it is ADME, organism-based, Canis lupus familiaris. The settings on record: in vivo.
The test system of data set [3] is Mus musculus. The experiment in a line: Decrease in VLDL cholesterol in human Apo-A-I transgenic C57BL/6 mouse at 1 mg/kg, po. It is filed as functional. Also on record: scale not given: the % may be the effect or the level left.
Data set [4] deals with Mus musculus. Kind of data set: Decrease in VLDL cholesterol in human Apo-A-I transgenic C57BL/6 mouse at 0.5 mg/kg, po. It is filed as functional. Also on record: scale not given: the % may be the effect or the level left.
Data set [5] addresses T1, Peroxisome proliferator-activated receptor alpha (Homo sapiens) (UniProt Q07869).
T1 sequence (whole entry): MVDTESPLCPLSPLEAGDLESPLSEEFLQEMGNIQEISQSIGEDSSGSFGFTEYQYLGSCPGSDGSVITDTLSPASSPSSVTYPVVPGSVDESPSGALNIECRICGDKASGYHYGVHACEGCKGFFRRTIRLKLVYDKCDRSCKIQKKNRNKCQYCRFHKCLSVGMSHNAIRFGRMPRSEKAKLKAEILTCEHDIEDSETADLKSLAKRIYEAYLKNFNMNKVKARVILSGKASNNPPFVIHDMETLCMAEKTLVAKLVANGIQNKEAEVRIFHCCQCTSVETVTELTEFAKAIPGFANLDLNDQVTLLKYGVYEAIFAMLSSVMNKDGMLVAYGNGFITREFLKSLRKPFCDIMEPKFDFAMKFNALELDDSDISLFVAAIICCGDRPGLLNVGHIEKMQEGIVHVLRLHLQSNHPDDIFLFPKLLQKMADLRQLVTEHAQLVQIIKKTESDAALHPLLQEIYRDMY
Kind of data set: Agonist potency at PPARalpha expressed in CV1 cells relative to GW-590735. It is filed as functional, cell-based. Particulars: CV-1.

In data set [6] the target is T2, Peroxisome proliferator-activated receptor gamma (Homo sapiens, UniProt P37231).
T2 sequence (P37231 whole entry): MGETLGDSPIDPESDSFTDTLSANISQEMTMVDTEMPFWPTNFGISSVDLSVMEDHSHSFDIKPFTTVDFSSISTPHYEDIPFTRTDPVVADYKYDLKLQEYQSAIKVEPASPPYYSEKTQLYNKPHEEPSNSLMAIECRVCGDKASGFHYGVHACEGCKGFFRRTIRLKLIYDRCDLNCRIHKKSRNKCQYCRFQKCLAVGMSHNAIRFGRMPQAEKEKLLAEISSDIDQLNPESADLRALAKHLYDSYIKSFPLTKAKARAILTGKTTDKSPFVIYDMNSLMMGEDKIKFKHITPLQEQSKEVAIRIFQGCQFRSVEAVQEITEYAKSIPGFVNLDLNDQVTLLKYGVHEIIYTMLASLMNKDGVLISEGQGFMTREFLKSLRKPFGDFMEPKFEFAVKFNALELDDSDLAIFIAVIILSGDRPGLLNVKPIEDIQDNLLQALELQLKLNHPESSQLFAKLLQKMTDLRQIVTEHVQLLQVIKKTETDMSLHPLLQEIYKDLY
It is filed as functional, cell-based, CV-1.
Description: Agonist potency at PPARgamma in CV1 cells by cell based transient transfection assay

Data set [7] concerns Mus musculus. Kind of data set: Decrease in VLDL cholesterol in human Apo-A-I transgenic C57BL/6 mouse at 5 mg/kg, po. Also on record: scale not given: the % may be the effect or the level left. It is filed as functional.
The test system of data set [8] is Mus musculus. Kind of data set: Decrease in LDL cholesterol level in human Apo-A-I transgenic C57BL/6 mouse at 5 mg/kg, po. It is filed as functional. Also on record: scale not given: the % may be the effect or the level left.
Data set [9] relates to Mus musculus. The experiment in a line: Increase in HDL cholesterol level in human Apo-A-I transgenic C57BL/6 mouse at 1 mg/kg, po. In kind it is functional.
The test system of data set [10] is Mus musculus. Kind of data set: Increase in HDL cholesterol level in human Apo-A-I transgenic C57BL/6 mouse at 5 mg/kg, po. In kind it is functional.
Data set [11] has as its system Mus musculus. The experiment in a line: Decrease in plasma TG level in human Apo-A-I transgenic C57BL/6 mouse at 0.5 mg/kg, po. It is filed as functional. Also on record: scale not given: the % may be the effect or the level left.
Data set [12] deals with Mus musculus. The experiment in a line: Decrease in plasma TG level in human Apo-A-I transgenic C57BL/6 mouse at 1 mg/kg, po. Also on record: scale not given: the % may be the effect or the level left. It is filed as functional.
For data set [13], the system named is Mus musculus. Kind of data set: Decrease in plasma TG level in human Apo-A-I transgenic C57BL/6 mouse at 5 mg/kg, po. It is filed as functional. Also on record: scale not given: the % may be the effect or the level left.
The nature of data set [14]: Volume of distribution in Wistar rat at 2.7 mg/kg, iv. Also on record: dose 2.7 mg/kg, route intravenous. The settings on record: in vivo, read-out: Vdss. It is filed as ADME, organism-based.
A short description of data set [15]: Plasma clearance in Wistar rat at 2.7 mg/kg, iv. In kind it is ADME, organism-based. Also on record: dose 2.7 mg/kg, route intravenous.
A short description of data set [16]: Plasma concentration in Wistar rat at 3 mg/kg, po after 1.5 hrs. In kind it is ADME, organism-based. Also on record: dose 3 mg/kg, route oral.
Data set [17] is described as follows: Bioavailability in Wistar rat at 3 mg/kg, po. It is filed as ADME, organism-based. Particulars: in vivo.
Data set [18] concerns the target T3, Peroxisome proliferator-activated receptor delta (Mus musculus, UniProt P35396).
T3 sequence (P35396 whole entry): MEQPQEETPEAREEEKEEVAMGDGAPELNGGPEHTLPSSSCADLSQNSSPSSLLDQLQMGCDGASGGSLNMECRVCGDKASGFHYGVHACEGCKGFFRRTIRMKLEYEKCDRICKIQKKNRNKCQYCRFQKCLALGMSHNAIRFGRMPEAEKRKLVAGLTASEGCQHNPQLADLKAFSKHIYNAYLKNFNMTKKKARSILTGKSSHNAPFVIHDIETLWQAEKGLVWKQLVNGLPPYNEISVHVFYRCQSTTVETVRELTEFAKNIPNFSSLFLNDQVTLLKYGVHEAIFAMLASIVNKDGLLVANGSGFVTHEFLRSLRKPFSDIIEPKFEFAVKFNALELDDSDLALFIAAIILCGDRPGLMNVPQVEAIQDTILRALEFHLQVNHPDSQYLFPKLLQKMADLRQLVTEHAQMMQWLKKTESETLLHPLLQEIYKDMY
Description: Agonist potency at mouse PPARdelta

In data set [19] the target is T4, Peroxisome proliferator-activated receptor delta (Homo sapiens, UniProt Q03181).
T4 sequence (Q03181 whole entry): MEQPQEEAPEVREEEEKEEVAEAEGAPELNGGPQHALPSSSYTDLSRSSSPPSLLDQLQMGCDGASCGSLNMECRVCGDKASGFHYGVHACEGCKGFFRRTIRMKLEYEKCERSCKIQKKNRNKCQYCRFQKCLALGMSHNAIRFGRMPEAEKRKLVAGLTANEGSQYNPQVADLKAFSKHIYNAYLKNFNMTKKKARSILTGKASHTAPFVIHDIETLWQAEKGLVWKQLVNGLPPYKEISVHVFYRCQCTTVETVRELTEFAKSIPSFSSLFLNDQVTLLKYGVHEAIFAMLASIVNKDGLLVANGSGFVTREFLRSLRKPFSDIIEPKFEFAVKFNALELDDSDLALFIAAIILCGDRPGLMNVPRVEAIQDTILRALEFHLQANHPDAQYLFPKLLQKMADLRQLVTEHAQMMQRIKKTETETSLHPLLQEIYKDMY
Description: Agonist potency at PPARdelta in CV1 cells by cell based transient transfection assay

Each structure is given as a SMILES string.

By clearance is commonly meant the rate of elimination divided by the concentration. In general, bioavailability refers to dose-corrected exposure relative to a reference, in per cent. The term EC50 denotes the midpoint of the concentration-response curve.

For `Cc1nc(-c2ccc(C(F)(F)F)cc2)sc1C(=O)NCc1ccc(OC(C)(C)C(=O)O)cc1` [GW590735], the clearance in data set [1] stood at 13 mL/min/kg; in data set [15], 5 mL/min/kg. The Cp with Canis familiaris was 1449 ng/mL. Further, the bioavailability in [2] is 85%; in data set [17], 47%. Besides, the Activity was 63% with Mus musculus [3]; 48% in the data set with Mus musculus [4]; 95% in [5]; 86% in the data set on Mus musculus [7]; 69% with Mus musculus [8]; 51% with Mus musculus [9]. Besides, the Activity in the data set on Mus musculus [10] is on record as 86%; in the data set on Mus musculus [11], 37%; in the data set with Mus musculus [12], 48%; with Mus musculus [13], 65%. Besides, the EC50 in data set [6] was more than 10000 nM; in [18], 1000 nM; in data set [19], 2830 nM. For the same molecule, the Vd in data set [14] was determined as 1 L/kg. Further, in [16], the concentration at 1.5 h came out at 1460 ng/mL.

Values taken from ChEMBL document CHEMBL1141367, “Substituted 2-[(4-aminomethyl)phenoxy]-2-methylpropionic acid PPARalpha agonists. 1. Discovery of a novel series of potent HDLc raising agents” (J Med Chem, 2007).
